The target in one assay is T1, TBK1 (Homo sapiens, UniProt Q9UHD2).
T1 sequence (Q9UHD2 1-729): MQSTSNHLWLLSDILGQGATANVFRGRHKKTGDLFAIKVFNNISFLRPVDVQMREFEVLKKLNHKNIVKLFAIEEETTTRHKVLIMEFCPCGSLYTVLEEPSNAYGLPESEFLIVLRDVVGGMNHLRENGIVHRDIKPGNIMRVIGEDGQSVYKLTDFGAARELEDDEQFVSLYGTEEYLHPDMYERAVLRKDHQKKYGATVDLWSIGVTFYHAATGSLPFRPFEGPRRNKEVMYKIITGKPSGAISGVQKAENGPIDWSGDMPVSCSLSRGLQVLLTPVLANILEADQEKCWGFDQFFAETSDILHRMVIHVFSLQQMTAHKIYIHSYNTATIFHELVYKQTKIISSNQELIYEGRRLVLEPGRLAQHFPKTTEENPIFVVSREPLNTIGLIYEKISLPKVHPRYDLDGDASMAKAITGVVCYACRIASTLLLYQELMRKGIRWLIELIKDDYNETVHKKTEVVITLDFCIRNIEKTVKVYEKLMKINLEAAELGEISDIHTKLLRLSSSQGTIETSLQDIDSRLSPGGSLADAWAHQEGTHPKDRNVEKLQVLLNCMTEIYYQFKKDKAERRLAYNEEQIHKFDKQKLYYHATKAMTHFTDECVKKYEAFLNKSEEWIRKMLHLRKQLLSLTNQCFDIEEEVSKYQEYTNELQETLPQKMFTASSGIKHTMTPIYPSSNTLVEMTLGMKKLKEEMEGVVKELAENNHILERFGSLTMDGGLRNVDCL
The assay can be described thus: SelectScreen Kinase Profiling, IC50 for TBK1. The settings on record: ATP Km app, ZLYTE; for inhibition: TBK1. Type of assay: biochemical. On the procedure:
Biochemical single point inhibition and IC50 concentrations for TBK1, IKKε (IKBKE), and off-target kinases were determined at ThermoFisher Scientific using SelectScreen Kinase Profiling Services (Madison, Wis., USA) (Tables S4A and S4B-1-7). To determine cellular potency, the human colorectal cancer carcinoma cell line HCT116 (ATCC, Manassas, Va.) was maintained in T175 flasks in complete RPMI medium; RPMI 1640 supplemented with 10% FBS, 1× Penicillin-Streptomycin solution and 1×MEM (non-essential amino acids). HCT116 cells were grown to 90-95% confluency in T175 flasks containing complete RPMI medium and transfected in bulk using Lipofectamine 2000 (Invitrogen, Carlsbad, Calif.) with 70 μg of ISG54-luciferase reporter plasmid (Elim Biopharmaceuticals Inc., Hayward, Calif.). The reporter plasmid contains a luciferase gene expression cassette under the transcriptional regulation of the promoter of the human interferon stimulated gene 54 (ISG54). Transfection of the cells was allowed to take place for 6 hours, after which the cells were harvested by treatment with 0.25% trypsin EDTA (Corning Inc., Corning, N.Y.). Trypsinized cells were added to 384-well poly-d-lysine treated black clear bottom tissue culture assay plates (Greiner Bio-One GmbH, Kremsmünster, Austria) at a density of 20,000 cells/well in 80 μL of complete RPMI medium and incubated overnight. After 16-18 hours post-transfection, the assay plates were washed with PBS (Corning Inc., Corning, N.Y.), followed by addition of 80 μL/well of serum-free RPMI 1640 medium containing 1× Penicillin-Streptomycin solution, 1×MEM and 350 nL of DMSO or titrations of Compound 1. Compound 1 titrations were generated by 1.5-fold dilution steps in two overlapping serial dilution series to generate a 40-point compound dose range. After incubation at 37° C. for 1 hour, the cells were stimulated with Poly(I:C) (InvivoGen, San Diego, Calif.) at a final concentration of 15 μg/mL in Optimem media (Life Technologies, Rockville, Md.). The assay plates were incubated for 5 hours at 37° C., followed by addition of One-Glo luciferase firefly reagent (Promega, Madison, Wis.) at 1:1 volume/well and luminescence was measured in an EnVision Multilabel Plate Reader (PerkinElmer, Santa Clara, Calif.). The EC50 values were calculated from the fit of the dose-response curves to a four-parameter equation. All EC50 values represent geometric mean values of a minimum of four determinations.

For assay [1], the system named is human CD4+ and CD8+ T cells. The assay can be described thus: IFNγ secretion by anti-CD3/anti-CD28 stimulated T cells. Format: cell-based. The conditions noted are these: dose-titration, 96 hours. The method, then: Freshly isolated human CD4+ and CD8+ T cells were obtained from AllCells (Alameda, Calif., USA). Cells were spun down and resuspended in serum free Xvivo15 media (Lonza Walkersville, Inc., Chicago, Ill., USA) supplemented with 5 ng/mL […] and incubated overnight at 37° C. Cells were plated on anti-CD3 coated plates (5 μg/mL OKT3, eBioscience, Dallas, Tex., USA, overnight) with 2 μg/mL anti-CD28 (eBioscience, Dallas, Tex., USA). Cells are treated in replicate plates with a dose-titration of Compound 1 for 24 hours for IL-2 and 96 hours for IFNγ. IL-2 and IFNγ in the supernatant were measured using single- or multi-plex immunoassay (Mesoscale Discovery, Rockville, Md., USA). Jurkat T cell leukemia cells (clone E61 obtained from ATCC) plated on anti-CD3 coated plates were treated with a dose titration of Compound 1 for 24 hours. IL-2 in the supernatant was measured as described above.

Structures are written as SMILES. Read-outs that look alike come from different tables or passages of the source.

For the compound `N#Cc1cc(-c2ncnc(Nc3ccc(N4CCN(C5COC5)CC4)cc3)n2)ccc1OC1CCOCC1` [Compound 1, 5-(4-((4-(4-(oxetan-3-yl)piperazin-1-yl)phenyl)amino)-1,3,5-triazin-2-yl)-2-((tetrahydro-2H-pyran-4-yl)oxy)benzonitrile], the values for the inhibition at TBK1 (read-out: % Inhibition 1), on TBK1 (read-out: % Inhibition 2) and at TBK1 (read-out: % Inhibition Avg) were 91%, 99% and 95%, respectively. On TBK1, this compound showed a Hillslope of 1.12. This compound had an IC50 against TBK1 of 1.04 nM. Moreover, the “fold selectivity (IKBKE)” value on TBK1 (IC50 relative to IKBKE IC50) was found to be 0.2 fold. At TBK1 (IC50 relative to TBK1 IC50), the “fold selectivity (TBK1)” value stood at 1.0 fold. The “secretion of IFN-γ from purified CD4+ and CD8+ T cells” value in assay [1] is reported as “enhanced secretion”.

In general, inhibition refers to the percentage by which the read-out fell short of the control. By IC50 is commonly meant the point on the concentration scale where inhibition reaches its midpoint. High values mean a need for much substance, low ones inhibition by little substance.

Source of the values: patent US11572590B2, “Methods for evaluating tumor cell spheroids using 3D microfluidic cell culture device” (Dana-Farber Cancer Institute, Inc., priority 2017, dated 2023).
